Experimental findings from patent publication US12324812B2, “Glucopyranosyl derivatives and their uses” (SUNSHINE LAKE PHARMA CO., LTD., priority 2019, dated 2025) are described below.

Each structure is given as a SMILES string. pIC50: −log10 of the molar value.

Test [1] deals with SD rats. The experiment in a line: Oral glucose tolerance test in SD rats. In kind it is in vivo, rat. The conditions noted are these: male SD rats, 0.1 mg/kg once by gavage, glucose 4.0 g/kg; decline rate of AUCGlu 0-60 min after sugar loading. On the procedure: 2. Oral Glucose Tolerance Test and UrinaR^y Glucose Excretion Test
The following methods were used to evaluate the effects of the compounds of the invention on improving oral glucose tolerance and glycosuria excretion.
Test method: The weight and the fasting blood glucose levels of male SD rats were measured after an overnight 15-hour fast. The rats were grouped by their weights and fasting plasma glucose levels. Each test group was administered with the corresponding test compound once by gavage at a dose of 0.1 mg/Kg, and the blank control group was administered solvent. After 30 minutes, the blood glucose level (i.e. zeropoint blood glucose) of each group was measured, and then each group was immediately administered glucose (4.0 g/kg) once by gavage. The blood was drawn from the tail vein at 15, 30 and 60 minutes after glucose administration and the blood glucose concentrations of SD rats were measured continuously on blood-glucose meter. The decline rate of the area under the blood sugar curve within 60 minutes (AUCGlu 0-60 min) after sugar loading was calculated.
After blood glucose level at 60 min time point was measured, each group was placed in a metabolism cage, and the urine was collected during 1.5 hours to 24 hours and 24 hours to 48 hours after drug administration with the metabolism cage as the unit. The urine volume of each metabolism cage at each point was recorded. The urine was collected and centrifuged to obtain the supernatant. The […] had free access to food and water during the urine collection. The urine glucose concentration of SD rats at each time point was determined on automatic biochemical analyzer.

Test [2] concerns the target human SGLT1 (Homo sapiens (Human), UniProt P13866). Nature of the test: Test of inhibitory activity on SGLT1 (14C-AMG uptake in CHO cells expressing human SGLT1). It counts as cell-based. The conditions noted are these: CHO cells expressing human SGLT1, 0.5 μM 14C-AMG, 37° C. 1 hour. On the procedure:
1. Test of Inhibitory Activity on SGLT1
the following methods can be used to determine the inhibitory activity of the compounds described in the invention on SGLT-1.
mock-transfected FIP-in CHO cells (3×10^4) and CHO cells expressing human SGLT1 gene were seeded into 96-well plates respectively. The cells were incubated for 12 hours. Each well of the 96-well plate was washed with 150 μL of sodium-free buffer once. To each well was added 50 μL of sodium-containing buffer containing test compounds of different concentrations and 0.5 μM […]. The incubation mixture was incubated at 37° C. for 1 hour. To each well was added 150 μL of precooled sodium-free buffer to terminate the reaction. The cell pellet was washed with sodium-free buffer three times and the residual liquid in well was removed. To each well was added 20 μL of precooled 100 mM NaOH. The 96-well plate was vibrated at 900 rpm for 5 minutes. Scintillation fluid (80 μL) was added to each well which was then vibrated at 600 rpm for 5 minutes. The amount of 14C-AMG was quantitatively detected using liquid scintillation.

human SGLT1, sequence (P13866 whole entry): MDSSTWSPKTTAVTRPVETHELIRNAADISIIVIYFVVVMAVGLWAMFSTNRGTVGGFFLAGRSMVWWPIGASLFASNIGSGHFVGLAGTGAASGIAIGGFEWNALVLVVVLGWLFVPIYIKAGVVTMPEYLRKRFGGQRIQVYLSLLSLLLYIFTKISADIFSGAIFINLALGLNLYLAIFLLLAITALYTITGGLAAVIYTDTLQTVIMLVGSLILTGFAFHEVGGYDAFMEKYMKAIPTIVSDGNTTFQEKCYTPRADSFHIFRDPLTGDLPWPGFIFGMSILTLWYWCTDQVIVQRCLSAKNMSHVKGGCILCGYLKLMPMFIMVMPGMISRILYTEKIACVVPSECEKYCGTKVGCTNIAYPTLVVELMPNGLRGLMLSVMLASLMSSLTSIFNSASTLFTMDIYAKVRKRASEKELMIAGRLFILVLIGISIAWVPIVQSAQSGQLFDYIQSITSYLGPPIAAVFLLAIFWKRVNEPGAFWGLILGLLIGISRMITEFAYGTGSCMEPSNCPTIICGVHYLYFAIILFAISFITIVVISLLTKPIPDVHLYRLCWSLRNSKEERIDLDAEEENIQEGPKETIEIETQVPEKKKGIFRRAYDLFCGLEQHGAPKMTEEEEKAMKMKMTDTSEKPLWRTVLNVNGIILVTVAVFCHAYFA

Turning to `CC[C@H]1O[C@@H](c2ccc(C)c(Cc3ccc(CCCC(=O)NC4(C(=O)NCCN(C)C)CCCCC4)cc3)c2)[C@H](O)[C@@H](O)[C@@H]1O` [Example 1, N-(2-dimethylaminoethyl)-1-[4-[4-[[5-[(2S, 3R, 4S, 5S, 6R)-6-ethyl-3,4,5-trihydroxy-tetrahydropyran-2-yl]-2-methyl-phenyl]methyl]phenyl]butyrylamino] cyclohexyl formamide], the hypoglycemic rate in test [1] is given as 31.28%. Also, the negative logarithm of the IC50 (pIC50) – broadly, −log10 of the IC50, conventionally taken in molar units – in test [2] is 9.66.
For `CCC[C@H]1O[C@@H](c2ccc(C)c(Cc3ccc(CCCC(=O)NC4(C(=O)NCCN(C)C)CCCCC4)cc3)c2)[C@H](O)[C@@H](O)[C@@H]1O` [Example 3, N-(2-dimethylaminoethyl)-1-[4-[4-[[2-methyl-5-[(2S, 3R, 4S, 5S, 6R)-3,4,5-trihydroxy-6-propyl-tetrahydropyran-2-yl]phenyl]methyl]phenyl]butyrylamino] cyclohexylformamide] the same measures were 29.42% and 9.60.
Regarding `Cc1ccc([C@]23OC[C@](CO)(O2)[C@@H](O)[C@H](O)[C@H]3O)cc1Cc1ccc(CCCC(=O)NC2(C(=O)NCCN(C)C)CCCCC2)cc1` [Example 4, N-(2-dimethylaminoethyl)-1-[4-[4-[[2-methyl-5-[(1S, 2S, 3S, 4R, 5S)-2,3,4,-trihydroxy-1-(hydroxymethyl)-6,8-dioxabicyclo [3.2.1]octane-5-yl]phenyl]methyl]phenyl]butyrylamino] cyclohexyl formamide], in test [1], the hypoglycemic rate was found to be 26.25%. In test [2], this compound showed a negative-log IC50 (pIC50) of 8.93.
